Assays:
[1] = tested on: anti-Aβ antibodies in macaque antisera; assay: Specificity analysis (10-mer peptide ELISA) of antisera from Cynomolgus macaques; assay type: binding
[2] = tested on: anti-Aβ antibodies in sera of vaccinated patients; assay: Epitope mapping, competitive binding inhibition EIA with patient sera (10-mer peptides, IC50); set-up: species or system human; Epitope mapping, fine specificity analysis, serum of subject P210: unit not given here; details: for Epitope mapping, fine specificity analysis, serum of subject P101: serum 16 wpi of vaccinated patient P101; for Epitope mapping, fine specificity analysis, serum of subject P102: serum 16 wpi of vaccinated patient P102; for Epitope mapping, fine specificity analysis, serum of subject P103: serum 16 wpi of vaccinated patient P103; for Epitope mapping, fine specificity analysis, serum of subject P104: serum 16 wpi of vaccinated patient P104; for Epitope mapping, fine specificity analysis, serum of subject P105: serum 16 wpi of vaccinated patient P105; for Epitope mapping, fine specificity analysis, serum of subject P106: serum 16 wpi of vaccinated patient P106; for Epitope mapping, fine specificity analysis, serum of subject P107: serum 16 wpi of vaccinated patient P107; for Epitope mapping, fine specificity analysis, serum of subject P108: serum 16 wpi of vaccinated patient P108; for Epitope mapping, fine specificity analysis, serum of subject P109: serum 16 wpi of vaccinated patient P109; for Epitope mapping, fine specificity analysis, serum of subject P201: serum 16 wpi of vaccinated patient P201; for Epitope mapping, fine specificity analysis, serum of subject P202: serum 16 wpi of vaccinated patient P202; for Epitope mapping, fine specificity analysis, serum of subject P203: serum 16 wpi of vaccinated patient P203; for Epitope mapping, fine specificity analysis, serum of subject P204: serum 16 wpi of vaccinated patient P204; for Epitope mapping, fine specificity analysis, serum of subject P205: serum 16 wpi of vaccinated patient P205; for Epitope mapping, fine specificity analysis, serum of subject P206: serum 16 wpi of vaccinated patient P206; for Epitope mapping, fine specificity analysis, serum of subject P207: serum 16 wpi of vaccinated patient P207; for Epitope mapping, fine specificity analysis, serum of subject P208: serum 16 wpi of vaccinated patient P208; for Epitope mapping, fine specificity analysis, serum of subject P209: serum 16 wpi of vaccinated patient P209; for Epitope mapping, fine specificity analysis, serum of subject P210: serum 16 wpi of vaccinated patient P210
[3] = antisera of macaques given UBI AD Vaccine 150 μg/dose, 9 WPI
[4] = antisera of macaques given UBI AD Vaccine 150 μg/dose, 15 WPI
[5] = antisera of macaques given UBI AD Vaccine 750 μg/dose, 9 WPI
[6] = antisera of macaques given UBI AD Vaccine 750 μg/dose, 15 WPI

| Substance | Reactivity of antisera with peptide (specificity analysis ELISA) [1, 3] | Reactivity of antisera with peptide (specificity analysis ELISA) [1, 4] | Reactivity of antisera with peptide (specificity analysis ELISA) [1, 5] | Reactivity of antisera with peptide (specificity analysis ELISA) [1, 6] | Epitope mapping, fine specificity analysis, serum of subject P101 [2] | Epitope mapping, fine specificity analysis, serum of subject P102 [2] | Epitope mapping, fine specificity analysis, serum of subject P103 [2] | Epitope mapping, fine specificity analysis, serum of subject P104 [2] | Epitope mapping, fine specificity analysis, serum of subject P105 [2] | Epitope mapping, fine specificity analysis, serum of subject P106 [2] | Epitope mapping, fine specificity analysis, serum of subject P107 [2] | Epitope mapping, fine specificity analysis, serum of subject P108 [2] | Epitope mapping, fine specificity analysis, serum of subject P109 [2] | Epitope mapping, fine specificity analysis, serum of subject P201 [2] | Epitope mapping, fine specificity analysis, serum of subject P202 [2] | Epitope mapping, fine specificity analysis, serum of subject P203 [2] | Epitope mapping, fine specificity analysis, serum of subject P204 [2] | Epitope mapping, fine specificity analysis, serum of subject P205 [2] | Epitope mapping, fine specificity analysis, serum of subject P206 [2] | Epitope mapping, fine specificity analysis, serum of subject P207 [2] | other results |
| --- | --- | --- | --- | --- | --- | --- | --- | --- | --- | --- | --- | --- | --- | --- | --- | --- | --- | --- | --- | --- | --- |
| 13 (EVKMDAEFRH; PROPEP (1)..(10) Abeta -4-6 or APP 770(E668-H677); listed as Homo sapiens) [compound 13] | 0.046 | 0.047 | 0.054 | 0.047 | 1 | 0 | 0 | 0 | 0 | 0 | 0 | 0 | 0 | 58 | 0 | 0 | 0 | 0 | 0 | 1 | Epitope mapping, fine specificity analysis, serum of subject P208 [2]: 0; Epitope mapping, fine specificity analysis, serum of subject P209 [2]: 0; Epitope mapping, fine specificity analysis, serum of subject P210 [2]: 0 |
| 15 (KMDAEFRHDS; PEPTIDE (1)..(10) Abeta -2-8 or APP 770(K670-S679); listed as Homo sapiens) [compound 15] | 0.065 | 0.031 | 0.069 | 0.062 | 94 | 0 | 0 | 0 | 0 | 0 | 0 | 0 | 0 | 2 | 7 | 0 | 12 | 0 | 0 | 0 | Epitope mapping, fine specificity analysis, serum of subject P208 [2]: 0; Epitope mapping, fine specificity analysis, serum of subject P209 [2]: 0; Epitope mapping, fine specificity analysis, serum of subject P210 [2]: 52 |
| 20 (RHDSGYEVHH; PEPTIDE (1)..(10) Abeta 5-14 or APP 770(R676-H685); listed as Homo sapiens) [compound 20] | 0.296 | 0.400 | 0.453 | 0.461 | 0 | 0 | 0 | 0 | 0 | 0 | 0 | 0 | 0 | 0 | 0 | 0 | 0 | 0 | 0 | 0 | Epitope mapping, fine specificity analysis, serum of subject P208 [2]: 0; Epitope mapping, fine specificity analysis, serum of subject P209 [2]: 0; Epitope mapping, fine specificity analysis, serum of subject P210 [2]: 0 |
| 29 (HQKLVFFAED; PEPTIDE (1)..(10) Abeta 14-23 or APP 770(H685-D694); listed as Homo sapiens) [compound 29] | 0.050 | 0.058 | 0.047 | 0.050 | 0 | 0 | 0 | 0 | 0 | 0 | 0 | 0 | 0 | 0 | 0 | 0 | 0 | 0 | 0 | 0 | Epitope mapping, fine specificity analysis, serum of subject P208 [2]: 0; Epitope mapping, fine specificity analysis, serum of subject P209 [2]: 0; Epitope mapping, fine specificity analysis, serum of subject P210 [2]: 0 |
| 24 (GYEVHHQKLV; PEPTIDE (1)..(10) Abeta 9-18 or APP 770(G680-V689); listed as Homo sapiens) [compound 24] | 0.055 | 0.067 | 0.052 | 0.059 | 0 | 0 | 0 | 0 | 0 | 0 | 0 | 0 | 0 | 0 | 0 | 0 | 0 | 0 | 0 | 16 | Epitope mapping, fine specificity analysis, serum of subject P208 [2]: 0; Epitope mapping, fine specificity analysis, serum of subject P209 [2]: 0; Epitope mapping, fine specificity analysis, serum of subject P210 [2]: 0 |
| 14 (VKMDAEFRHD; PEPTIDE (1)..(10) Abeta -3-7 or APP 770(V669-D678); listed as Homo sapiens) [compound 14] | 0.068 | 0.053 | 0.061 | 0.054 | 31 | 0 | 0 | 0 | 0 | 0 | 0 | 0 | 0 | 0 | 0 | 0 | 1 | 0 | 0 | 0 | Epitope mapping, fine specificity analysis, serum of subject P208 [2]: 0; Epitope mapping, fine specificity analysis, serum of subject P209 [2]: 0; Epitope mapping, fine specificity analysis, serum of subject P210 [2]: 13 |
| 17 (AEFRHDSGYE; PEPTIDE (1)..(10) Abeta 2-11 or APP 770(A673-E682); listed as Homo sapiens) [compound 17] | 0.058 | 0.059 | 0.054 | 0.060 | 2 | 0 | 0 | 0 | 0 | 0 | 0 | 0 | 0 | 3 | 0 | 0 | 0 | 0 | 0 | 0 | Epitope mapping, fine specificity analysis, serum of subject P208 [2]: 0; Epitope mapping, fine specificity analysis, serum of subject P209 [2]: 0; Epitope mapping, fine specificity analysis, serum of subject P210 [2]: 0 |
